For this experiment, the system named is SARS-CoV-2. The experiment can be described thus: microbe, parasite or virus in culture. The conditions noted are these: Severe acute respiratory syndrome coronavirus 2, Caco-2, 48 h; for inhibition at 10 µM: read-out: % Inh. (% Inhibition of SARS-CoV-2).

Counter-ions that a name gives are not always drawn. Like-named read-outs stand apart in the source and are kept apart here.

The term inhibition denotes the percentage by which the read-out fell short of the control. As for `O=C1NC(c2cccc([N+](=O)[O-])c2)=CCN1c1ccccc1O` [icilin], the inhibition at 10 µM is 55.1%.

With `COc1ccccc1N1CCN(CC(O)COc2cccc3ccccc23)CC1` (stereo not shown) [NAFTOPIDIL], the inhibition at 10 µM was 90.6%.

In the case of `O=C1c2cccc3c2[C@H](CCC3)CN1[C@@H]1CN2CCC1CC2` [Palonosetron HCl], the inhibition at 10 µM is 57.4%.

Consider `CCC[C@H](Nc1nc(-c2ccc(NC(=O)NCC)c(OC)c2)ncc1C)c1cccnc1` [CYT997], for which the inhibition at 10 µM came out at 58.6%.

Consider `COc1cc(CN2CCN(c3ccc(F)cc3)CC2)cc(OC)c1OC` [1-(4-fluorophenyl)-4-(3,4,5-trimethoxybenzyl)piperazine], for which the inhibition at 10 µM worked out at 67.3%.

For `O[C@@H](COc1cccc2ncccc12)CN1CCN([C@@H]2c3ccccc3[C@@H]3[C@H](c4ccccc42)C3(F)F)CC1` [LY335979 (Zosuquidar trihydrochloride), Zosuquidar trihydrochloride], the IC50 is 26.8 µM and the inhibition at 10 µM stood at 93%. For the same compound, the IC50 (read-out: pIC50 (converted)) was 26.9 µM.

As to `CCN1CCN(Cc2ccc(-c3cc4c(N[C@H](C)c5ccccc5)ncnc4[nH]3)cc2)CC1` [AEE788], the inhibition at 10 µM was found to be 90.9%.

Regarding `O=C(Nc1ccc(OC(F)(F)F)cc1)c1sccc1NCc1ccnc2ccccc12` [OSI-930], the inhibition at 10 µM stood at 100%.

Consider `C/C=C/C=C/C(=O)O` [sorbic-acid], for which the inhibition at 10 µM came to 65.5%.

For the compound `Cc1cc(Nc2ncc(Cl)c(Nc3ccccc3S(=O)(=O)C(C)C)n2)c(OC(C)C)cc1C1CCNCC1` [Ceritinib], the inhibition at 10 µM came out at 60%.

As for `Oc1c(Cl)cc(Cl)c(Cl)c1Cc1c(O)c(Cl)cc(Cl)c1Cl` [HEXACHLOROPHENE], the inhibition at 10 µM worked out at 92.9%.

As to `CCOc1cc2ncc(C#N)c(Nc3ccc(F)c(Cl)c3)c2cc1NC(=O)/C=C/CN(C)C` [Pelitinib (EKB-569), Pelitinib], the inhibition at 10 µM stood at 83.4%.

With `COc1ccc(CCCOC(Cn2ccnc2)c2ccc(OC)cc2)cc1` (stereo not shown) [SKF-96365], the inhibition at 10 µM is 70.3%.

For `COc1ccc(-n2nc(C(N)=O)c3c2C(=O)N(c2ccc(N4CCCCC4=O)cc2)CC3)cc1` [APIXABAN], the inhibition at 10 µM amounted to 78%.

Compound `Cc1nc(C#Cc2ccnc(Cl)c2)c(C)n1-c1ccc(F)cc1` [Basimglurant] gave an IC50 of 25.2 µM. Besides, the IC50 (read-out: pIC50 (converted)) was 25.1 µM.

On to `COc1cc2ncnc(Nc3ccc(F)c(Cl)c3)c2cc1NC(=O)/C=C/CN1CCCCC1` [Dacomitinib (PF299804, PF-00299804), Dacomitinib], for which the inhibition at 10 µM came out at 85.5%.

As to `O=C(O)c1ccccc1O` [SALICYLIC ACID], the inhibition at 10 µM is 71.3%.

On to `COC(=O)[C@H]1[C@H]2C[C@@H]3c4[nH]c5cc(OC)ccc5c4CCN3C[C@H]2C[C@@H](OC(=O)c2cc(OC)c(OC)c(OC)c2)[C@@H]1OC` [RESERPINE], for which the inhibition at 10 µM was 67.8%.

With `N=C(N)c1ccc(OCCCCCOc2ccc(C(=N)N)cc2)cc1` [PENTAMIDINE ISETHIONATE], the inhibition at 10 µM stood at 54.6%.

As to `O=C(c1ccc(F)c(F)c1Nc1ccc(I)cc1F)N1CC(O)([C@@H]2CCCCN2)C1` [Cobimetinib], the inhibition at 10 µM turned out to be 61.6%.

With `CN1CCC(Nc2ncc3ncnc(Nc4ccc(F)c(Cl)c4)c3n2)CC1` [BIBX-1382], the inhibition at 10 µM worked out at 79.3%.

As to `O=C(NCc1ccncc1)C12CC3CC(C1)CC(c1ccc(Cl)cc1)(C3)C2` [ABC294640], the IC50 was 38.2 µM and the inhibition at 10 µM turned out to be 81.4%. For the same compound, the IC50 (read-out: pIC50 (converted)) is 38 µM.

For the compound `CC1(C)CC[C@]2(C(=O)O)CC[C@]3(C)[C@H](C(=O)C=C4[C@@]5(C)C=C(C#N)C(=O)C(C)(C)[C@@H]5CC[C@]43C)[C@@H]2C1` [Bardoxolone], the inhibition at 10 µM stood at 66%.

`CC(O)COC[C@H]1O[C@@H]2O[C@H]3[C@H](O)[C@@H](O)[C@@H](O[C@H]4[C@H](O)[C@@H](O)[C@@H](O[C@H]5[C@H](O)[C@@H](O)[C@@H](O[C@H]6[C@H](O)[C@@H](O)[C@@H](O[C@H]7[C@H](O)[C@@H](O)[C@@H](O[C@H]8[C@H](O)[C@@H](O)[C@@H](O[C@H]1[C@H](O)[C@H]2O)O[C@@H]8COCC(C)O)O[C@@H]7COCC(C)O)O[C@@H]6COCC(C)O)O[C@@H]5COCC(C)O)O[C@@H]4COCC(C)O)O[C@@H]3COCC(C)O` (stereo partly drawn) [hydroxypropyl-beta-cyclodextrin]: the inhibition at 10 µM was 56.5%.

On to `CCn1c(=O)c(-c2cc[nH]n2)cc2c(C)nc(N)nc21` [Voxtalisib], for which the inhibition at 10 µM stood at 84.3%.

In the case of `COc1cc2nccc(Oc3ccc(NC(=O)C4(C(=O)Nc5ccc(F)cc5)CC4)cc3)c2cc1OC` [cabozantinib], the inhibition at 10 µM was determined as 57.5%.

In the case of `CNCCCOc1cc(F)c(-c2c(Cl)nc3ncnn3c2N[C@@H](C)C(F)(F)F)c(F)c1` [Cevipabulin], the inhibition at 10 µM was determined as 53.6%.

With `N#Cc1cn([C@@H]2O[C@H](CO)[C@@H](O)[C@H]2O)c2ncnc(N)c12` [toyocamycin], the inhibition at 10 µM is 68.4%.

For the compound `Nc1cc(C(F)(F)F)c(-c2nc(N3CCOCC3)nc(N3CCOCC3)n2)cn1` [Bimiralisib], the inhibition at 10 µM came out at 97.2%.

On to `COc1ccc(CCNCC(O)COc2cccc(C)c2)cc1OC` (stereo not shown) [Bevantolol HCl], for which the inhibition at 10 µM was determined as 77.1%.

For `CC(C)(C)NC[C@H](O)COc1cccc2c1CCCC2=O` [levobunolol], the inhibition at 10 µM is 64.5%.

In the case of `FC(F)(F)c1ccc(/C=C/c2nc(COc3ccc(CCCCn4ccnn4)cc3)co2)cc1` [mubritinib], the inhibition at 10 µM stood at 82.2%.

For the compound `CC(=O)Oc1c(C)cc(OCC(O)CNC(C)C)c(C)c1C` (stereo not shown) [metipranolol], the inhibition at 10 µM was 54.6%.

Take `C=CC(N)CCC(=O)O` (stereo not shown) [Vigabatrin]: the inhibition at 10 µM came to 52.5%.

`Cc1c(-c2ccc(-c3ccccc3F)cc2)nc2ccc(F)cc2c1C(=O)O` [Brequinar sodium salt hydrate]: the inhibition at 10 µM was 61%.

As for `Cc1cc(C)c2c(c1)[C@@H](N(Cc1cc(C(F)(F)F)cc(C(F)(F)F)c1)c1nnn(C)n1)CCCN2C[C@H]1CC[C@H](C(=O)O)CC1` [Evacetrapib (LY2484595), Evacetrapib], the IC50 worked out at 26.7 µM and the inhibition at 10 µM stood at 94.9%. For the same compound, where the note is “read-out: pIC50 (converted)”, the IC50 is 26.9 µM.

With `Clc1ccc(CCC(Cn2ccnc2)Sc2c(Cl)cccc2Cl)cc1` (stereo not shown) [BUTOCONAZOLE], the inhibition at 10 µM amounted to 70.6%.

For the compound `CCc1nn(CCCN2CCN(c3cccc(Cl)c3)CC2)c(=O)n1CCOc1ccccc1` [NEFAZODONE HYDROCHLORIDE], the inhibition at 10 µM amounted to 71.7%.

Consider `CCCC1O[C@@H]2C[C@H]3[C@@H]4CCC5=CC(=O)C=C[C@]5(C)[C@H]4[C@@H](O)C[C@]3(C)[C@]2(C(=O)CO)O1` (stereo partly shown) [budesonide], for which the inhibition at 10 µM turned out to be 74.4%.

Turning to `NC(=O)N/N=C/c1ccc([N+](=O)[O-])o1` [NITROFURAZONE], the inhibition at 10 µM was determined as 87.3%.

For the compound `Cn1c(NC[C@@H](N)Cc2ccccc2)nc(-c2ccncc2)c(-c2ccc3ccccc3c2)c1=O` [AMG-548], the inhibition at 10 µM came out at 89%.

Turning to `NCCC(Oc1ccc(C(F)(F)F)cc1)c1ccccc1` (stereo not shown) [norfluoxetine], the inhibition at 10 µM was determined as 95%.

Turning to `O=C(Nc1ccc(Cl)cc1)Nc1ccc(Cl)c(Cl)c1` [Triclocarban], the inhibition at 10 µM was 97.2%.

Take `CC(C)(O)CC(=O)NCCn1ccc2ncnc(Nc3ccc(Oc4cccc(C(F)(F)F)c4)c(Cl)c3)c21` [TAK-285]: the inhibition at 10 µM came to 73%.

Regarding `O=C(NC[C@H](O)CO)c1ccncc1Nc1ccc(I)cc1F` [Pimasertib (AS-703026), Pimasertib], the inhibition at 10 µM came to 53.2%.

The record behind these values is US20230126310A1 (priority 2020, published 2023).
